# Experimental data: patent US9677045B2, “Microorganisms and methods for production of 4-hydroxybutyrate, 1,4-butanediol and related compounds” (priority 2012, dated 2017)
# T1: phosphotransbutyrylase (PTB) (Clostridium acetobutylicum, UniProt P58255)
# T1 construct: made in house; host or cells: E. coli, plasmid pZA33-0020-0021, cell extract
# T1 sequence (P58255 1-301): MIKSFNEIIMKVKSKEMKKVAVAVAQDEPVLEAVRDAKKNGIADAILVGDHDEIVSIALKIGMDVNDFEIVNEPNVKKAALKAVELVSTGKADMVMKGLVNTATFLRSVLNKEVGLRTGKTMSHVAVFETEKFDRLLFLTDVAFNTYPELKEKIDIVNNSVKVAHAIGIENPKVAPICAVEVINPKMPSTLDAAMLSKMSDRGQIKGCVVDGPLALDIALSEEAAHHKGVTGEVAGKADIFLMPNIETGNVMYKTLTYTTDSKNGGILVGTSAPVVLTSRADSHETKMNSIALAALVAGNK
# Key:
# [1] = system: BCKA in Bacillus subtilis; settings: decarboxylation; cited from earlier work
# [2] = molecular target: T1, phosphotransbutyrylase (PTB); experiment: PTB enzyme activity, butyryl-CoA to butyryl-phosphate (DTNB); assay type: biochemical; settings: extracts of cells with native ptb/bk operon (0020, 0021) in pZA33
# Method: The enzyme activity of PTB is measured in the direction of butyryl-CoA to butyryl-phosphate as described in Cary et al. J. Bacteriol. 170:4613-4618 (1988). It provides inorganic phosphate for the conversion, and follows the increase in free CoA with the reagent 5,5′-dithiobis-(2-nitrobenzoic acid), or DTNB. DTNB rapidly reacts with thiol groups such as free CoA to release the yellow-colored 2-nitro-5-mercaptobenzoic acid (TNB), which absorbs at 412 nm with a molar extinction coefficient of 14,140 M cm^−1. The assay buffer contained 150 mM potassium phosphate at pH 7.4, 0.1 mM DTNB, and 0.2 mM butyryl-CoA, and the reaction was started by addition of 2 to 50 μL cell extract. The enzyme activity of BK is measured in the direction of butyrate to butyryl-phosphate formation at the expense of ATP. The procedure is similar to the assay for acetate kinase previously described Rose et al., J. Biol. Chem. 211:737-756 (1954). […] This assay links conversion of ATP to ADP by acetate kinase to the linked conversion of ADP and phosphoenolpyruvate (PEP) to ATP and pyruvate by pyruvate kinase, followed by the conversion of pyruvate and NADH to lactate and NAD+ by lactate dehydrogenase. […] The reaction was started by adding 2 to 50 μL cell extract, and the reaction was monitored based on the decrease in absorbance at 340 nm indicating NADH oxidation. […]
Molecule,activity relative to other branched-chain substrates [1],specific activity of PTB [2]
O=C(O)CCC(=O)C(=O)O [2-Oxoglutarate],5%,–
"PTB: phosphotransbutyrylase from C. acetobutylicum (gene 0020) (protein, UniProt P58255 1-301, looked up) Phosphate butyryltransferase: MIKSFNEIIMKVKSKEMKKVAVAVAQDEPVLEAVRDAKKNGIADAILVGDHDEIVSIALKIGMDVNDFEIVNEPNVKKAALKAVELVSTGKADMVMKGLVNTATFLRSVLNKEVGLRTGKTMSHVAVFETEKFDRLLFLTDVAFNTYPELKEKIDIVNNSVKVAHAIGIENPKVAPICAVEVINPKMPSTLDAAMLSKMSDRGQIKGCVVDGPLALDIALSEEAAHHKGVTGEVAGKADIFLMPNIETGNVMYKTLTYTTDSKNGGILVGTSAPVVLTSRADSHETKMNSIALAALVAGNK",–,approximately 5 U/mg
